Reference: US20180318199A1, “Pharmaceutical Composition Having Anti-Aging Properties against High-Glucose” (TAIWAN LEADER BIOTECH CORP., priority 2017, published 2018)
“Also recorded” adds a separate entry of the source.

How the values were obtained:
Assay type in all cases: cell-based, human
HO-1 and NQO-1 = assay: Western blot of HO-1 and NQO-1 in HNDFs; conditions: ANM 10 μM or NAC 100 μM, 24 h; for HO-1 protein expression: NG and HG groups
Procedure: In FIG. 5D, to determine the protein expression levels of HO-1, NQO-1 and Nrf2, HNDFs are incubated with ANM (10 μM) or NAC (100 μM) for 24 h. Total cell lysates are prepared and subjected to western blot analysis to monitor the expression levels of HO-1, NQO-1 and Nrf2.
(§1) Cells are lysed by either RIPA lysis buffer or nuclear and cytoplasmic extraction reagents (Thermo Fisher Scientific). Protein concentrations are determined by Bio-Rad protein assay reagent (Bio-Rad Laboratories, Hercules, Calif.). Equal amounts of protein samples (60 μg) are separated by 7-12% SDS-PAGE and the separated proteins are transferred onto polyvinylidene […] (PVDC) membrane overnight. The transferred protein membranes are blocked with 5% non-fat dried milk for 30 min, followed by incubation with specific primary antibodies overnight, and either horseradish peroxidase-conjugated goat anti-rabbit or anti-mouse antibodies for 2 h. The blots are detected using VL Chemi-Smart 3000 (Viogene Biotek, Sunnyvale, Calif.) with the enhanced chemiluminescence (ECL) western blotting reagent (Millipore, Billerica, Mass.).

[1] = system: p16^INK4A, p21^CIP1 and SMP30; assay: Western blot of senescence-associated marker proteins in HNDFs
Procedure: In addition, in FIG. 2C, HNDFs are incubated with ANA (10 μM), ANH (10 μM) and ANM (10 μM) in the presence of HG (30 mM) for 72 h. Senescence-associated marker proteins such as p16^INK4A, p21^CIP1 and SMP30 are determined by western blot analysis.
In order to assess the cellular and molecular basis of the ANM-mediated inhibition of senescence, the expression levels of senescence-associated marker proteins including, p16^INK4A and p21^CIP1 are examined. In FIG. 4D, to determine the effect of ANM on senescence-associated protein expression, HNDFs are incubated with ANM (10 μM) or NAC (100 μM) in the presence or absence of HG (30 mM) for 72 h. Immunoblotting analysis is used to determine the protein levels with corresponding specific antibodies.
as §1

Keap-1 = Keap-1 protein level and ubiquitination (western blot, immunoprecipitation) in HNDFs; conditions: for ubiquitination of total protein: HNDFs treated with ANM or NAC
Procedure: Under normal physiological condition, Nrf2 is sequestered in the cytoplasm, where it associated with Keap-1, an actin-binding protein. Upon chemical treatment or oxidative stress conditions, the steady-state levels of Keap-1 is rapidly degraded through the ubiquitin-dependent proteasome pathway, which eventually causes Nrf2 accumulation and transcriptional activity. […] In FIG. 5H, the Keap-1 protein expression level is determined by western blotting.
In FIG. 5I, effect of ANM on ubiquitination of Keap-1 is examined. Equivalent amount of proteins are immune-precipitated with Keap-1 antibody and visualized by western blotting with ubiquitin antibody. […] Results are expressed as mean±S.E.M of three independent experiments. Statistical significance is set at ^ϕP<0.05 as compared to NG vs. HG or ANM alone or NAC alone and *P<0.05 as compared to HG vs. samples. […] Therefore, it is further examined whether AKT and ERK1/2 have any influence on Keap-1 ubiquitination. Cells are co-incubated with AKT, p38MAPK, JNK and ERK1/2 inhibitors in the presence of […]; and the Keap-1 ubiquitination is examined.
HNDFs are seeded at a density of 1×10^6 cells/dish in 10 cm dish and treated with ANM or pharmacological inhibitors of AKT, JNK/SAPK, p38 MAPK and ERK1/2 in the presence or absence of HG. After treatment, cells are lysed with RIPA buffer containing protease inhibitor cocktail. The lysates are homogenized and centrifuged at 16,000×g for 15 min at 4° C. The supernatant is collected and the protein concentration is determined by Bio-Rad protein assay reagent. Total protein extract containing 500 μg of proteins are precleared with protein-A agarose beads for 1 h and incubated with 3 μg of anti-Keap-1 antibody for overnight at 4° C. with gently shake. After overnight incubation, centrifuged at 2000×g for 5 min at 4° C., the supernatant is discarded and the reaming pellet is washed with RIPA buffer. Immunoprecipitated complexes are mixed with SDS sample buffer and denatured at 94° C. for 5 min. Equal amount of protein samples are subjected to western blotting. The ubiquitinated Keap-1 protein levels are determined by ubiquitin antibody.

HUVECs = assay: SA-β-gal senescence assay in HUVECs; conditions: ANM 10 μM + HG 30 mM, 48 h; HG alone 6.38-fold
Procedure: Please refer to FIG. 9A˜FIG. 9H, which are views showing HG-induced senescence prevented by ANM in human umbilical vein endothelial cells (HUVECs). As shown in the figures, to further delineate the protective effects of ANM on another cell system, experiments are designed to investigate the protective effect of ANM on HUVECs incubated in media containing either NG or HG alone or with ANM for 48 h. Cell viability is measured by MTT assay. […] Cell viability is determined by MTT assay. Percentage of viable cells are normalized with control cells (NG). […] In addition, in FIG. 9B, cellular senescence is determined by SA-β-gal activity assay. […] In addition, in FIG. 9C and FIG. 9D, total cell lysate is extracted and senescence-associated marker proteins including p16^INK4A, p21^CIP1 total and acetylated p53 and FoxO1 are measured by western blot analysis.
Senescence-associated β-galactosidase (SA-β-gal) activity is determined in formaldehyde-fixed histochemical staining kit according to the manufacturer's instructions (Cell Signaling Technology, Danvers, Calif.). Briefly, cells are grown in 6-well plates at a density of 5×10^4 cells/well, and incubated with HG or test samples for 48 h (HUVECs) or 72 h (HNDFs). […]

SMILES | NQO-1 protein expression (HO-1 and NQO-1) | HO-1 protein expression (HO-1 and NQO-1) | SMP30 protein under HG (western blot) ([1]; 10 μM + HG 30 mM, 72 h) | HG-induced p16^INK4A and p21^CIP1 protein expression ([1]; 10 μM + HG 30 mM, 72 h, western blot) | basal level of p21^CIP1 expression ([1]; ANM alone, no HG) | ubiquitination of Keap-1, co-incubated with HG (Keap-1; ANM + HG) | Keap-1 protein level (Keap-1; ANM alone or in HG-induced condition) | ubiquitination of Keap-1 (Keap-1; ANM alone, immunoprecipitation with anti-Keap-1) | ubiquitination of total protein (Keap-1) | SA-β-gal staining in HUVECs (HUVECs)
C=C(CCC(C)C1CCC2C3=C(C(=O)C(O)C21C)C1(C)CCC(O)C(C)C1CC3)C(C)C(=O)O (stereo not shown) [ANM, antcin M] | unaffected | significantly increase | significantly upregulated | significantly downregulated; also recorded: significantly attenuates | significantly reduces | further increase | significantly decreased | remarkable increase | significant increase | 1.36 fold
CC(=O)N[C@@H](CS)C(=O)O [NAC, N-acetylcysteine, reference compound] | unaffected | significantly increase |  |  |  |  |  |  | significant increase | 
